For experiment [1], the target named is T1, Amine oxidase [flavin-containing] A (Homo sapiens, UniProt P21397).
T1 sequence (P21397 whole entry): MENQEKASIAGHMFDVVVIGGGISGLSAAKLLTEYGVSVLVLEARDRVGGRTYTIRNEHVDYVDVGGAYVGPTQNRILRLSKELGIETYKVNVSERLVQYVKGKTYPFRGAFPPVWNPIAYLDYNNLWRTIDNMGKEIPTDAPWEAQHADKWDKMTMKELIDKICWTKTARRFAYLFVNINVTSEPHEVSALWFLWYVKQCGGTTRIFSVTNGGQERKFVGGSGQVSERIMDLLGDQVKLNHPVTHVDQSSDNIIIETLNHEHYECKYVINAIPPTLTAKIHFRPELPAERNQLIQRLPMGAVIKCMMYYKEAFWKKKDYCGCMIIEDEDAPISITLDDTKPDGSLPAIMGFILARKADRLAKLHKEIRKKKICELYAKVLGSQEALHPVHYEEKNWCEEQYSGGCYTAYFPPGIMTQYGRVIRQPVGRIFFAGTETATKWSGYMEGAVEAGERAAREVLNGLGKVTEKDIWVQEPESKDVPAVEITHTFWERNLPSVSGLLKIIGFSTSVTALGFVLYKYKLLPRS
Conditions: read-out: INH.
Description: Inhibition of human recombinant MAOA after washing at 500 uM by centrifugation-ultrafiltration method

The target of experiment [2] is T1, Amine oxidase [flavin-containing] A. The following applies: read-out: INH. The source holds these as a separate data set.
Description: Inhibition of human recombinant MAOA before repeated washing at 500 uM

As to `O=C(NCCN1CCOCC1)c1ccc(Cl)cc1` [MOCLOBEMIDE], the inhibition at 500 µM stood at 10.3% in experiment [1] and 86.8% in experiment [2].
